Test results reported in patent US20110065787A1, “THERAPEUTIC AGENT FOR MALE STERILITY” (SBI ALApromo., Ltd., priority 2008, published 2011).
“Also recorded” adds a separate entry of the source.

How the values were obtained:
[1] = system: male rats (Slc:Wistar); experiment: Crossing test: conception rate of copulated animals (Example 2); format: in vivo, rat
Procedure: Forty 10 week-old male rats (Slc:Wistar) and forty 9 week-old female rats were obtained, quarantined for 7 days, and were habituated and bred for 13 days. δ-amino levulinic acid (herein after referred to as ALA) phosphate was weighed, dissolved into injection solvent to prepare a 50 mg/mL solution.
After day 15 from administration of Example 1, crossing period was set as 14 days, and 1 female was housed per 1 male in the control group and in the 500 mg/kg-group.

[2] = system: male rats (Slc:Wistar); experiment: Organ weights at autopsy of male rats after repeated oral administration (Example 1); details: 500 mg/kg oral once a day, compared to the control group, FIG. 1
[3] = system: healthy volunteers, married men; experiment: Subjective estimation of erectile effect in healthy volunteers (Example 3); format: in vivo, human
Procedure: 1 g of ALA hydrochloride was dissolved into 50 mL of 5% glucose aqueous solution (test solution), and administered to 7 healthy volunteers, married men from 28 to 44 years old. They ingested orally the test solution (13.9 to 22.2 mg/kg) without taking breakfast.

[4] = 1 g oral in 5% glucose solution (13.9 to 22.2 mg/kg), one line per volunteer 1-7, hydrochloride

Structure (SMILES)	conception succeeded (number of rats) ([1]; 500 mg/kg-group, control 16 out of 20)	conception rate of copulated animals ([1]; male rats 500 mg/kg oral once a day, crossing period 14 days after day 15, control group 80.0%) [%]	net weight of seminal vesicle [2]	weight volume ratio to the body weight of seminal vesicle [2]	Note (sexual intercourse, pregnancy) [3, 4]	Result (erectile, individual subjective estimation) [3, 4]	volunteers in whom erectile was observed on that night ([3]; 1 g oral, 7 healthy volunteers)	volunteers who had sexual intercourse, and pregnancy was confirmed ([3]; 1 g oral, among the volunteers with erectile)
NCC(=O)CCC(=O)O.O=P(O)(O)O [ALA phosphate, δ-amino levulinic acid phosphate]	17 out of 19	94.4	significant high level	significant high level				
Cl.NCC(=O)CCC(=O)O [ALA hydrochloride, δ-amino levulinic acid hydrochloride]					pregnant; also recorded: No sexual intercourse; also recorded: No sexual intercourse,	Δ (when no change is observed by (Δ))	5 out of 7	2
